Measured values reported in US20160158317A1, “Antimicrobial Peptide Variants and Polynucleotides Encoding Same” (Adenium Biotech A/S, priority 2010, published 2016).
Where a SMILES comes first, the peptide text is derived from it. Bridges are numbered along the chain shown (N, C = ends).

Test: Determination of the protein binding (90% serum, 30 kDa filter, HPLC)
Type: in vitro ADME
Details: serum
Protocol: Protein binding assays were performed as follows. The purified peptides were mixed with 90% serum and centrifuged through a 30 kDa filter. The ultra-filtrate and the non filtrated serum samples were quantified by HPLC measurements and the protein binding was subsequently calculated.

CC(C)[C@@H]1NC(=O)CNC(=O)[C@H](CC(N)=O)NC(=O)[C@H](CCCNC(=N)N)NC(=O)[C@H](Cc2ccc(O)cc2)NC(=O)[C@H](C(C)C)NC(=O)[C@@H]2CSSC[C@H](NC(=O)[C@H](C(C)C)NC(=O)[C@H](CCCNC(=N)N)NC1=O)C(=O)N[C@@H](Cc1c[nH]cn1)C(=O)N[C@@H](CCCNC(=N)N)C(=O)N[C@@H](CCCNC(=N)N)C(=O)N[C@H](C(=O)N[C@@H](CC(N)=O)C(=O)O)CSSC[C@H](NC(=O)[C@H](Cc1ccccc1)NC(=O)CN)C(=O)N[C@@H](Cc1c[nH]c3ccccc13)C(=O)N[C@@H](CC(N)=O)C(=O)N[C@@H](Cc1ccccc1)C(=O)N2 [compound 260] (H-GFCWNFCVYRNGVRVCHRRCN-OH; disulfide 3-20, 7-16 (inferred); N-terminus and C-terminus assumed)
fraction unbound: 0.16

CC[C@H](C)[C@@H]1NC(=O)[C@H](CC(N)=O)NC(=O)[C@H](Cc2c[nH]c3ccccc23)NC(=O)[C@@H](NC(=O)[C@H](Cc2ccccc2)NC(=O)CN)CSSC[C@@H](C(=O)N[C@@H](CC(N)=O)C(=O)O)NC(=O)[C@H](CCCNC(=N)N)NC(=O)[C@H](CCCNC(=N)N)NC(=O)[C@H](Cc2c[nH]cn2)NC(=O)[C@@H]2CSSC[C@H](NC1=O)C(=O)N[C@@H](C(C)C)C(=O)N[C@@H](Cc1ccc(O)cc1)C(=O)N[C@@H](CCCNC(=N)N)C(=O)N[C@@H](CC(N)=O)C(=O)NCC(=O)N[C@@H](C(C)C)C(=O)N[C@@H](CCCNC(=N)N)C(=O)N[C@@H](C(C)C)C(=O)N2 [compound 262] (H-GFCWNICVYRNGVRVCHRRCN-OH; disulfide 3-20, 7-16 (inferred); N-terminus and C-terminus assumed)
fraction unbound: 0.12

CC(C)C[C@@H]1NC(=O)[C@H](CC(N)=O)NC(=O)[C@H](Cc2c[nH]c3ccccc23)NC(=O)[C@@H](NC(=O)[C@H](Cc2ccccc2)NC(=O)CN)CSSC[C@@H](C(=O)N[C@@H](CC(N)=O)C(=O)O)NC(=O)[C@H](CCCNC(=N)N)NC(=O)[C@H](CCCNC(=N)N)NC(=O)[C@H](Cc2c[nH]cn2)NC(=O)[C@@H]2CSSC[C@H](NC1=O)C(=O)N[C@@H](C(C)C)C(=O)N[C@@H](Cc1ccc(O)cc1)C(=O)N[C@@H](CCCNC(=N)N)C(=O)N[C@@H](CC(N)=O)C(=O)NCC(=O)N[C@@H](C(C)C)C(=O)N[C@@H](CCCNC(=N)N)C(=O)N[C@@H](C(C)C)C(=O)N2 [compound 263] (H-GFCWNLCVYRNGVRVCHRRCN-OH; disulfide 3-20, 7-16 (inferred); N-terminus and C-terminus assumed)
fraction unbound: 0.2

CC(C)[C@@H]1NC(=O)CNC(=O)[C@H](CC(N)=O)NC(=O)[C@H](CCCNC(=N)N)NC(=O)[C@H](Cc2ccc(O)cc2)NC(=O)[C@H](C(C)C)NC(=O)[C@@H]2CSSC[C@H](NC(=O)[C@H](C(C)C)NC(=O)[C@H](CCCNC(=N)N)NC1=O)C(=O)N[C@@H](Cc1c[nH]cn1)C(=O)N[C@@H](CCCNC(=N)N)C(=O)N[C@@H](CCCNC(=N)N)C(=O)N[C@H](C(=O)N[C@@H](CC(N)=O)C(=O)O)CSSC[C@H](NC(=O)[C@H](Cc1ccccc1)NC(=O)CN)C(=O)N[C@@H](Cc1c[nH]c3ccccc13)C(=O)N[C@@H](CC(N)=O)C(=O)N[C@@H](Cc1c[nH]c3ccccc13)C(=O)N2 [compound 267] (H-GFCWNWCVYRNGVRVCHRRCN-OH; disulfide 3-20, 7-16 (inferred); N-terminus and C-terminus assumed)
fraction unbound: 0.15

CC(C)[C@@H]1NC(=O)CNC(=O)[C@H](CC(N)=O)NC(=O)[C@H](CCCNC(=N)N)NC(=O)[C@H](Cc2ccc(O)cc2)NC(=O)[C@H](Cc2ccccc2)NC(=O)[C@@H]2CSSC[C@H](NC(=O)[C@H](C(C)C)NC(=O)[C@H](CCCNC(=N)N)NC1=O)C(=O)N[C@@H](Cc1c[nH]cn1)C(=O)N[C@@H](CCCNC(=N)N)C(=O)N[C@@H](CCCNC(=N)N)C(=O)N[C@H](C(=O)N[C@@H](CC(N)=O)C(=O)O)CSSC[C@H](NC(=O)[C@H](Cc1ccccc1)NC(=O)CN)C(=O)N[C@@H](Cc1c[nH]c3ccccc13)C(=O)N[C@@H](CC(N)=O)C(=O)N[C@@H](C(C)C)C(=O)N2 [compound 272] (H-GFCWNVCFYRNGVRVCHRRCN-OH; disulfide 3-20, 7-16)
fraction unbound: 0.26

CC(C)C[C@@H]1NC(=O)[C@@H]2CSSC[C@H](NC(=O)[C@H](C(C)C)NC(=O)[C@H](CCCNC(=N)N)NC(=O)[C@H](C(C)C)NC(=O)CNC(=O)[C@H](CC(N)=O)NC(=O)[C@H](CCCNC(=N)N)NC(=O)[C@H](Cc3ccc(O)cc3)NC1=O)C(=O)N[C@@H](Cc1c[nH]cn1)C(=O)N[C@@H](CCCNC(=N)N)C(=O)N[C@@H](CCCNC(=N)N)C(=O)N[C@H](C(=O)N[C@@H](CC(N)=O)C(=O)O)CSSC[C@H](NC(=O)[C@H](Cc1ccccc1)NC(=O)CN)C(=O)N[C@@H](Cc1c[nH]c3ccccc13)C(=O)N[C@@H](CC(N)=O)C(=O)N[C@@H](C(C)C)C(=O)N2 [compound 275] (H-GFCWNVCLYRNGVRVCHRRCN-OH; disulfide 3-20, 7-16 (inferred); N-terminus and C-terminus assumed)
fraction unbound: 0.2

CC(C)[C@@H]1NC(=O)CNC(=O)[C@H](CC(N)=O)NC(=O)[C@H](CCCNC(=N)N)NC(=O)[C@H](Cc2ccc(O)cc2)NC(=O)[C@H](C(C)C)NC(=O)[C@@H]2CSSC[C@H](NC(=O)[C@H](C(C)C)NC(=O)[C@H](CCCNC(=N)N)NC1=O)C(=O)N[C@@H](Cc1c[nH]cn1)C(=O)N[C@@H](CCCNC(=N)N)C(=O)N[C@@H](CCCNC(=N)N)C(=O)N[C@H](C(=O)NCC(=O)O)CSSC[C@H](NC(=O)[C@H](Cc1ccccc1)NC(=O)CN)C(=O)N[C@@H](Cc1c[nH]c3ccccc13)C(=O)N[C@@H](CC(N)=O)C(=O)N[C@@H](C(C)C)C(=O)N2 [compound 281] (H-GFCWNVCVYRNGVRVCHRRCG-OH; disulfide 3-20, 7-16 (inferred); N-terminus and C-terminus assumed)
fraction unbound: 0.34

CC(C)[C@@H]1NC(=O)CNC(=O)[C@H](CC(N)=O)NC(=O)[C@H](CCCNC(=N)N)NC(=O)[C@H](Cc2ccc(O)cc2)NC(=O)[C@H](C(C)C)NC(=O)[C@@H]2CSSC[C@H](NC(=O)[C@H](C(C)C)NC(=O)[C@H](CCCNC(=N)N)NC1=O)C(=O)N[C@@H](Cc1c[nH]cn1)C(=O)N[C@@H](CCCNC(=N)N)C(=O)N[C@@H](CCCNC(=N)N)C(=O)N[C@H](C(=O)N[C@@H](Cc1c[nH]cn1)C(=O)O)CSSC[C@H](NC(=O)[C@H](Cc1ccccc1)NC(=O)CN)C(=O)N[C@@H](Cc1c[nH]c3ccccc13)C(=O)N[C@@H](CC(N)=O)C(=O)N[C@@H](C(C)C)C(=O)N2 [compound 282] (H-GFCWNVCVYRNGVRVCHRRCH-OH; disulfide 3-20, 7-16 (inferred); N-terminus and C-terminus assumed)
fraction unbound: 0.18

CC(C)[C@@H]1NC(=O)CNC(=O)[C@H](CC(N)=O)NC(=O)[C@H](CCCNC(=N)N)NC(=O)[C@H](Cc2ccc(O)cc2)NC(=O)[C@H](C(C)C)NC(=O)[C@@H]2CSSC[C@H](NC(=O)[C@H](C(C)C)NC(=O)[C@H](CCCNC(=N)N)NC1=O)C(=O)N[C@@H](Cc1c[nH]cn1)C(=O)N[C@@H](CCCNC(=N)N)C(=O)N[C@@H](CCCNC(=N)N)C(=O)N[C@H](C(=O)N[C@@H](CCCCN)C(=O)O)CSSC[C@H](NC(=O)[C@H](Cc1ccccc1)NC(=O)CN)C(=O)N[C@@H](Cc1c[nH]c3ccccc13)C(=O)N[C@@H](CC(N)=O)C(=O)N[C@@H](C(C)C)C(=O)N2 [compound 284] (H-GFCWNVCVYRNGVRVCHRRCK-OH; disulfide 3-20, 7-16 (inferred); N-terminus and C-terminus assumed)
fraction unbound: 0.28
